{"source": "patent US8992897B2", "about": "“Skin lightening compositions” (ELC Management LLC, priority 2010, dated 2015)", "key": {"B16F10 melanoma cells [1]": {"tested_on": "B16F10 melanoma cells", "test": "pH change in B16F10 melanoma cells by DAMP accumulation / FITC anti-DNP fluorescence", "format": "cell-based, mouse", "protocol": "The protocol to detect changes in pH followed that of Cheli, Y. et al. B16F10 melanoma cells were seeded in glass bottom dishes and maintained in DMEM medium with 10% FBS. […] Cells were washed with fresh culture medium and incubated for 20 minutes in the presence of 30 μM DAMP ([3-(2,4-dinitroanilino)3′amino-N-methyldipropylamine], a weak base which accumulates in acidic compartments). Cells were fixed in 3% PFA for 20 minutes at room temperature. The glass bottom dishes were washed with PBS, incubated 10 minutes in NH4Cl//PBS at room temperature and permeabilized in PBS with 0.1% Triton-100 for two minutes on ice. The dishes were then incubated with a green reflecting fluoroscein isothiocyanate (FITC)-labeled rabbit anti-dinitrophenyl (DNP) antibody (1/50 PBS plus 1% BSA) for one hours at 37° C. The intensity of fluorescence indicated the accumulation of DAMP. Increased intensity of the fluorescence can be related to lowered pH. (Cheli, Y., Luciani, F., Khaled, M., Beuret, L., Billie, K., Gounon, Pl, Ortonne, J. P., Bertolotto, C., and Ballotti, R. Alpha-MSH and cyclic-AMP elevating agents control melanosome pH through a PKA-independent mechanism. J. Biol. Chem., 284:18699-18706, 2009).\nIt has been previously shown that forskolin induces an alkalinization of the melanosome milieu."}, "human tyrosinase": {"biological_target": "T1, human tyrosinase (Homo sapiens, UniProt P14679)", "T1 sequence (P14679 19-529)": "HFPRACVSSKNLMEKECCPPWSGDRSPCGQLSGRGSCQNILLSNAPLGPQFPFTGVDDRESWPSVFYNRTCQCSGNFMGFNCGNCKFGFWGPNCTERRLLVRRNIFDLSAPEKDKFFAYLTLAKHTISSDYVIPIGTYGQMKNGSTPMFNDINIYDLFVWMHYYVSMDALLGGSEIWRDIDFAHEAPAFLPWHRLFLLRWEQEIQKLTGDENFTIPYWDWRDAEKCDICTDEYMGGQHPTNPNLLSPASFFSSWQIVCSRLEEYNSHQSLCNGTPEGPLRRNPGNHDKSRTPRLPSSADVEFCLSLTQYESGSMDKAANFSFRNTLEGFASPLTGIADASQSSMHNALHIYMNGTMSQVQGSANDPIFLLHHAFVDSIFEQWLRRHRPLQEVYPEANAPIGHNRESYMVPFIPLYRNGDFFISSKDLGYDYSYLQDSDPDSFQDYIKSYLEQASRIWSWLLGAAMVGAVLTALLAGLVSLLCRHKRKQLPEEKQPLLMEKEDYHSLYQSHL", "conditions": "test tube assay, extracts from human melanocytes"}, "mouse tyrosinase": {"tested_on": "mouse tyrosinase", "test": "Tyrosinase protein level by Western blot", "conditions": "Western blots, antibodies specific for mouse tyrosinase"}, "B16F10 melanoma cells [2]": {"tested_on": "B16F10 melanoma cells", "test": "Melanin content of B16F10 melanoma cells (screening for inhibition of melanogenesis)", "protocol": "B16F10 melanoma cells were incubated for three days with test compounds at various concentrations. The cells were fixed, dried and solubilized, and the melanin content was determined."}, "MITF mRNA": {"tested_on": "MITF mRNA", "test": "MITF mRNA level by RT-PCR in B16F10 cells", "conditions": "B16F10 mouse melanoma cells"}, "cultured melanocytes": {"tested_on": "cultured melanocytes", "test": "Inhibition of melanogenesis in cultured melanocytes"}, "tyrosinase mRNA": {"tested_on": "tyrosinase mRNA", "test": "Tyrosinase mRNA level by RT-PCR in B16F10 cells", "conditions": "B16F10 mouse melanoma cells"}, "tyrosinase": {"biological_target": "T2, tyrosinase (Mus musculus, UniProt P11344)", "T2 sequence (P11344 19-533)": "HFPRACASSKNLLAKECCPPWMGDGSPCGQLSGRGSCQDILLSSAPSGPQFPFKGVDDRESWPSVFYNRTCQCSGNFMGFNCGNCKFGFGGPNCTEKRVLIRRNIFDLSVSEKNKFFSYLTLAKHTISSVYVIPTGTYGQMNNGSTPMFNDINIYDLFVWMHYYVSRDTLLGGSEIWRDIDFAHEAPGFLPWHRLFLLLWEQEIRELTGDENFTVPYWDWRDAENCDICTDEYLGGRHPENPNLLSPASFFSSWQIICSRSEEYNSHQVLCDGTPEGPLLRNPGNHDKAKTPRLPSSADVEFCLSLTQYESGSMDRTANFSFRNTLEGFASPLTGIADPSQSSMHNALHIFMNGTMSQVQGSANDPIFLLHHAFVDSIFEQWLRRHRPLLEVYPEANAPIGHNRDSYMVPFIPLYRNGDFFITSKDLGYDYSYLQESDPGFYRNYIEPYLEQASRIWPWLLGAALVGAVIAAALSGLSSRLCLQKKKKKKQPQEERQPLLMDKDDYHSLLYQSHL", "test": "Tyrosinase activity of B16F10 cell extracts with L-DOPA as substrate"}, "skin": {"tested_on": "skin", "conditions": "4% hydroquinone, another study"}}, "note": "Read-outs that look alike come from different tables or passages of the source.", "data": [{"molecule": "C=C[C@@]1(C)CC(=O)[C@]2(O)[C@@]3(C)[C@@H](O)CCC(C)(C)[C@@H]3[C@H](O)[C@H](OC(C)=O)[C@@]2(C)O1", "note": "[Forskolin]", "values": [{"measurement": "Average fluorescence per cell ± S.D.", "setting": "B16F10 melanoma cells [1]; 24 hour incubation, 20 μM", "value": "87 ± 15.1"}]}, {"molecule": "5- or 6-methoxy-2-{[(4-methoxy-3,5-dimethylpyridin-2-yl)methyl]sulfinyl}-1H-benzimidazole [omeprazole]", "values": [{"measurement": "concentration required to moderately inhibit human tyrosinase activity", "setting": "human tyrosinase", "value": 250, "unit": "µg/mL"}, {"measurement": "lowering the pH of melanoma cells (in words)", "setting": "B16F10 melanoma cells [1]; 25 μM and 50 μM, after 4 hours of treatment", "value": "effective at lowering the pH"}, {"measurement": "Average fluorescence per cell ± S.D.", "setting": "B16F10 melanoma cells [1]; 4 hour incubation (first experiment), 50 μM", "value": "145.5 ± 14.5"}, {"measurement": "Average fluorescence per cell ± S.D.", "setting": "B16F10 melanoma cells [1]; 4 hour incubation (second experiment), 25 μM", "value": "124.3 ± 2.5"}, {"measurement": "Average fluorescence per cell ± S.D.", "setting": "B16F10 melanoma cells [1]; 4 hour incubation (second experiment), 50 μM", "value": "133.7 ± 13.3"}, {"measurement": "Average fluorescence per cell ± S.D.", "setting": "B16F10 melanoma cells [1]; 24 hour incubation, 50 μM", "value": "139.3 ± 14.4"}, {"measurement": "Fluorescence intensity / DAMP labeling (in words)", "setting": "B16F10 melanoma cells [1]; exposure of cells for 24 hours", "value": "increased"}, {"measurement": "tyrosinase protein level", "setting": "mouse tyrosinase", "value": "decreases tyrosinase protein level"}, {"measurement": "cytotoxicity", "setting": "B16F10 melanoma cells [2]; B16F10 melanoma cells", "value": "without cytotoxicity"}, {"measurement": "inhibition of melanin synthesis", "setting": "B16F10 melanoma cells [2]; B16F10 melanoma cells", "value": "inhibits melanin synthesis"}, {"measurement": "reducing melanin in the cells (melanin content)", "setting": "B16F10 melanoma cells [2]; B16F10 melanoma cells incubated three days with test compounds at various concentrations", "value": "one of the compounds most potent in reducing melanin"}, {"measurement": "MITF mRNA level", "setting": "MITF mRNA", "value": "does not change"}, {"measurement": "effective concentration to inhibit melanogenesis", "setting": "cultured melanocytes", "value": "5 to 50", "unit": "µg/mL"}, {"measurement": "tyrosinase mRNA level", "setting": "tyrosinase mRNA", "value": "does not change"}, {"measurement": "tyrosinase activity of B16F10 cell extracts", "setting": "tyrosinase", "value": "decreases the tyrosinase activity"}]}, {"molecule": "Oc1ccc(O)cc1", "note": "[hydroquinone]", "values": [{"measurement": "lightening factor", "setting": "skin; 3 weeks of treatment", "value": 3.2}, {"measurement": "lightening factor", "setting": "skin; 4 weeks of treatment", "value": 5.0}]}, {"molecule": "Cc1nc2c(OCc3ccccc3)cccn2c1CC#N", "note": "[SCH-28080, 2-methyl-8-(phenylmethoxy) imidazo (1,2a) pyridine-3-acetonitrile]", "values": [{"measurement": "inhibition of melanogenesis", "setting": "B16F10 melanoma cells [2]; cultured B16F10 mouse melanoma cells (routine screening)", "value": "equally as efficient as omeprazole"}]}]}
